Assay results as given in patent US20050142581A1, “Microrna as ligands and target molecules” (priority 2003, published 2005).
Oligonucleotides are written 5' to 3', each unit as a sugar letter and its base; * is a phosphorothioate linkage, no mark a phosphodiester; rarer units and linkages stand in square brackets, end groups in braces. Plain capitals give the bases only. e = 2'-O-(2-methoxyethyl) (MOE); [5mC] = 5-methylcytosine; d = 2'-deoxy (DNA)

Each substance was assayed on human CD40 mRNA (assay: Inhibition of CD40 mRNA levels by oligonucleotides (real-time RT-PCR)). Conditions: 2'-MOE gapmers, 18 nucleotides, phosphorothioate throughout; averaged from three experiments.
Format: cell-based
Design: concentration or dose not given beside the values
Description: When cells reach about 80% confluency, they are treated with oligonucleotide. For cells grown in 96-well plates, wells are washed once with 200 μl Opti-MEM-1 reduced-serum medium (Life Technologies) and then treated with 130 μl of Opti-MEM-1 containing 3.75 μg/ml LIPOFECTIN (Life Technologies) and the desired oligonucleotide at a final concentration of 150 nM. After 4 hours of treatment, the medium was replaced with fresh medium. Cells were harvested 16 hours after oligonucleotide treatment.
Poly(A)+ mRNA was isolated according to Miura et al. (Clin. Chem., 1996, 42, 1758). Briefly, for cells grown on 96-well plates, growth medium was removed from the cells and each well was washed with 200 ul cold PBS. 60 ul lysis buffer (10 mM Tris-HCl, pH 7.6, 1 mM EDTA, 0.5 M NaCl, 0.5% NP-40, 20 mM vanadyl-ribonucleoside complex) was added to each well, the plate was gently agitated and then incubated at room temperature for five minutes. 55 ul of lysate was transferred to Oligo d(T) coated 96 well plates (AGCT Inc., Irvine, Calif.). Plates were incubated for 60 minutes at room temperature, washed 3 times with 200 ul of wash buffer (10 mM Tris-HCl pH 7.6, 1 mM EDTA, 0.3 M NaCl). After the final wash, the plate was blotted on paper towels to remove excess wash buffer and then air-dried for 5 minutes. 60 ul of elution buffer (5 mM Tris-HCl pH 7.6), preheated to 70° C. was added to each well, the plate was incubated on a 90° hot plate for 5 minutes, and the eluate then transferred to a fresh 96 well plate. Cells grown on 100 mm or other standard plates may be treated similarly, using appropriate volumes of all solutions.
Quantitation of CD40 mRNA levels was determined by real-time PCR (RT-PCR) using the ABI PRISM 7700 Sequence Detection System (PE-Applied Biosystems, Foster City, Calif.) according to manufacturer's instructions. This is a closed-tube, non-gel-based, fluorescence detection system which allows high-throughput quantitation of polymerase chain reaction (PCR) products in real-time.
As opposed to standard PCR, in which amplification products are quantitated after the PCR is completed, products in RT-PCR are quantitated as they accumulate. This is accomplished by including in the PCR reaction an oligonucleotide probe that anneals specifically between the forward and reverse PCR primers, and contains two fluorescent dyes. A reporter dye (e.g., JOE or FAM, PE-Applied Biosystems, Foster City, Calif.) is attached to the 5′ end of the probe and a quencher dye (e.g., TAMRA, PE-Applied Biosystems, Foster City, Calif.) is attached to the 3′ end of the probe. When the probe and dyes are intact, reporter dye emission is quenched by the proximity of the 3′ quencher dye. During amplification, annealing of the probe to the target sequence creates a substrate that can be cleaved by the 5′-exonuclease activity of Taq polymerase.
With each cycle, additional reporter dye molecules are cleaved from their respective probes, and the fluorescence intensity is monitored at regular (six-second) intervals by laser optics built into the ABI PRISM 7700 Sequence Detection System. In each assay, a series of parallel reactions containing serial dilutions of mRNA from untreated control samples generates a standard curve that is used to quantitate the percent inhibition after antisense oligonucleotide treatment of test samples.
RT-PCR reagents were obtained from PE-Applied Biosystems, Foster City, Calif. RT-PCR reactions were carried out by adding 25 ul PCR cocktail (1× Taqman buffer A, 5.5 mM MgCl2, 300 uM each of dATP, dCTP and dGTP, 600 uM of dUTP, 100 nM each of forward primer, reverse primer, and probe, 20 U RNAse inhibitor, 1.25 units AmpliTaq Gold, and 12.5 U MuLV reverse transcriptase) to 96 well plates containing 25 ul poly(A) mRNA solution. […]

Substance	% Inhibition (Inhibition of CD40 mRNA Levels by Chimeric Phosphorothioate Oligonucleotides) [%]
19277 (eA*e[5mC]*e[5mC]*eA*dG*dC*dA*dC*dC*dA*dA*dG*dA*dG*eG*eA*eT*eG; antisense) [compound 19277]	3.48
19293 (e[5mC]*eT*eT*e[5mC]*dT*dG*dC*dC*dT*dG*dC*dA*dC*dC*e[5mC]*e[5mC]*eT*eG; antisense) [compound 19293]	0.00
19222 (antisense eG*eT*eG*eG*dG*dT*dG*dG*dT*dT*dC*dT*dG*dG*eA*eT*eG*eG) [compound 19222]	57.79
19259 (antisense eG*eA*e[5mC]*eT*dG*dG*dG*dC*dA*dG*dG*dG*dC*dT*e[5mC]*eG*e[5mC]*eA) [compound 19259]	82.00
19220 (DNA eT*e[5mC]*eT*eG*dG*dA*dT*dG*dG*dA*dC*dA*dG*dC*eG*eG*eT*e[5mC]; antisense) [compound 19220]	78.71
19238 (antisense eT*eG*eG*eG*dG*dT*dC*dG*dC*dA*dG*dT*dA*dT*eT*eT*eG*eT) [compound 19238]	0.00
19213 (DNA eA*eG*eG*eT*dG*dA*dG*dA*dC*dC*dA*dG*dG*dC*eG*eG*e[5mC]*eA; antisense) [compound 19213]	80.82
19284 (eT*eG*eG*eA*dG*dC*dC*dA*dG*dG*dA*dA*dG*dA*eT*e[5mC]*eG*eT; antisense) [compound 19284]	54.48
19250 (antisense eT*eG*e[5mC]*eA*dG*dG*dA*dC*dA*dC*dA*dG*dC*dT*e[5mC]*eT*e[5mC]*eA) [compound 19250]	52.05
19266 (eT*eT*eG*eG*dT*dC*dT*dC*dA*dC*dA*dG*dC*dT*eT*eG*eT*e[5mC]; antisense) [compound 19266]	45.92
19270 (eG*eT*e[5mC]*eT*dT*dG*dT*dT*dT*dG*dT*dG*dC*dC*eT*eG*e[5mC]*e[5mC]; antisense) [compound 19270]	68.95
19283 (eG*eG*eA*eG*dC*dC*dA*dG*dG*dA*dA*dG*dA*dT*e[5mC]*eG*eT*e[5mC]; antisense) [compound 19283]	69.47
19288 (e[5mC]*eG*eG*eT*dT*dG*dG*dC*dA*dT*dC*dC*dA*dT*eG*eT*eA*eA; antisense) [compound 19288]	34.49
19255 (antisense eG*eT*eA*eT*dC*dA*dG*dA*dA*dA*dC*dC*dC*dC*eT*eG*eT*eA) [compound 19255]	36.13
19275 (eG*eG*eG*eA*dT*dC*dA*dC*dC*dA*dC*dC*dA*dG*eG*eG*e[5mC]*eT; antisense) [compound 19275]	57.94
19237 (antisense e[5mC]*eT*eG*eG*dT*dG*dG*dC*dA*dG*dT*dG*dT*dG*eT*e[5mC]*eT*e[5mC]) [compound 19237]	70.32

Same assay, conditions: oligodeoxynucleotides with phosphorothioate backbones throughout; averages from three experiments

Substance	% INHIB. (Inhibition of CD40 mRNA Levels by Phosphorothioate Oligodeoxynucleotides) [%]
18674 (DNA dG*dC*dA*dG*dA*dT*dG*dA*dC*dA*dC*dA*dT*dT*dG*dG*dA*dG; antisense) [compound 18674]	0.00
18688 (DNA dG*dA*dG*dG*dA*dT*dG*dG*dC*dA*dA*dA*dC*dA*dG*dG*dA*dT; antisense) [compound 18688]	0.00
18667 (DNA dG*dT*dA*dT*dC*dA*dG*dA*dA*dA*dC*dC*dC*dC*dT*dG*dT*dA; antisense) [compound 18667]	0.00
18700 (DNA dC*dG*dG*dT*dT*dG*dG*dC*dA*dT*dC*dC*dA*dT*dG*dT*dA*dA; antisense) [compound 18700]	0.00
18664 (DNA dA*dA*dG*dC*dC*dG*dG*dG*dC*dG*dA*dG*dC*dA*dT*dG*dA*dG; antisense) [compound 18664]	0.00
18699 (DNA dT*dG*dG*dC*dA*dT*dC*dC*dA*dT*dG*dT*dA*dA*dA*dG*dT*dC; antisense) [compound 18699]	0.00
18658 (DNA dT*dT*dC*dA*dC*dA*dG*dG*dT*dG*dC*dA*dG*dA*dT*dG*dG*dT; antisense) [compound 18658]	0.00
18655 (DNA dG*dT*dG*dT*dC*dT*dG*dT*dT*dT*dC*dT*dG*dA*dG*dG*dT*dG; antisense) [compound 18655]	0.00
18704 (DNA dA*dA*dC*dT*dG*dC*dC*dT*dG*dT*dT*dT*dG*dC*dC*dC*dA*dC; antisense) [compound 18704]	33.89
18652 (DNA dC*dT*dA*dG*dG*dT*dT*dG*dG*dG*dG*dT*dC*dG*dC*dA*dG*dT; antisense) [compound 18652]	0.00
18648 (DNA dC*dT*dC*dT*dG*dT*dT*dC*dC*dA*dG*dG*dT*dG*dT*dC*dT*dA; antisense) [compound 18648]	0.00
18672 (DNA dC*dA*dT*dT*dG*dG*dA*dG*dA*dA*dG*dA*dA*dG*dC*dC*dG*dA; antisense) [compound 18672]	0.00
18627 (DNA dG*dC*dA*dG*dA*dG*dG*dC*dA*dG*dA*dC*dG*dA*dA*dC*dC*dA; antisense) [compound 18627]	0.00
18636 (DNA dC*dA*dC*dA*dA*dA*dG*dA*dA*dC*dA*dG*dC*dA*dC*dT*dG*dA; antisense) [compound 18636]	0.00
18691 (DNA dT*dA*dT*dT*dG*dG*dT*dT*dG*dG*dC*dT*dT*dC*dT*dT*dG*dG; antisense) [compound 18691]	0.00
18646 (DNA dG*dA*dA*dG*dG*dC*dA*dT*dT*dC*dC*dG*dT*dT*dT*dC*dA*dG; antisense) [compound 18646]	9.00
18676 (DNA dG*dT*dC*dC*dA*dA*dG*dG*dG*dT*dG*dA*dC*dA*dT*dT*dT*dT; antisense) [compound 18676]	8.01
18633 (DNA dG*dG*dT*dG*dG*dT*dT*dC*dT*dG*dG*dA*dT*dG*dG*dA*dC*dA; antisense) [compound 18633]	0.00
18630 (DNA dG*dA*dC*dA*dG*dC*dG*dG*dT*dC*dA*dG*dC*dA*dA*dG*dC*dA; antisense) [compound 18630]	0.00
18660 (DNA dT*dA*dC*dA*dG*dT*dG*dC*dC*dA*dG*dC*dC*dT*dT*dC*dT*dT; antisense) [compound 18660]	7.80
